{
  "source": "patent US6380161B1",
  "about": "“Compositions for treating chemotherapy-resistant tumor cells and targeted chemotherapy compositions” (priority 1999, dated 2002)",
  "key": {"Melanoma tumor cells": {"system": "Melanoma tumor cells", "assay": "Melanoma tumor development (lung tumor colonies) in mice", "assay_type": "in vivo", "details": "intraperitoneally 24 and 96 hours after tumor implantation, 18 μM/kg, versus buffer", "description": "This experiment was designed to evaluate whether the conjugation of the peptide to doxorubicin altered its ability to prevent wild-type, nonresistant tumor development in mice. Melanoma tumor cells were injected into mice. The animals (5 in each group) were treated intraperitoneally 24 and 96 hours after tumor implantation with either buffer alone, Dox-P, the Cys(Acm)-Ser-Val-Thr-Cys(Acm)-Gly (SEQ ID NO: 6) peptide, or Dox, at a concentration of 18 μM/kg. The mice were sacrificed and the melanoma tumor colonies on the lung were counted. […] Additionally, the tumor colonies in the Dox-P and the Dox groups were 2-5 fold smaller than in the buffer group."}, "[1]": {"system": "Doxorubicin and multidrug-resistant CHO Cells", "assay": "Coadministration of peptides and doxorubicin on resistant CHO cells", "assay_type": "cell-based", "details": "peptide coadministered with doxorubicin, not linked", "description": "Doxorubicin and multidrug-resistant CHO cells were treated with a 7 coadministration of peptides and doxorubicin. In this example the peptides were not linked to the doxorubicin, but were only administered at the same time."}, "Wild-type CHO Cells": {"system": "Wild-type CHO Cells", "assay": "Cell viability / in vitro LD50 on wild-type CHO cells (ALAMAR BLUE)", "assay_type": "cell-based", "description": "(§1) Doxorubicin and multidrug-resistant CHO cells were cultured using standard tissue culture conditions: 37° C., DMEM media, serum free conditions, with 5% CO2 for pH adjustment. The cells were treated for 24 hours with either doxorubicin or Dox-P, the peptide conjugate prepared in Example 1, at concentrations of 0.25, 0.5, 0.75, and 1.0 mM. Untreated cells were used as a negative control.\nCell viability was measured using the ALAMAR BLUE™ assay (available from Biosource International, Camarillo, Calif.). The assay quantitatively measures the proliferation of cell lines and can establish the relative cytotoxicity of chemical agents. The assay incorporates a fluorometric/colorimetric growth indicator based on detection of metabolic activity. The system incorporates an oxidation-reduction (redox) indicator that both fluoresces and changes color in response to chemical reduction of growth medium resulting from cell growth. This causes the redox indicator to change from its oxidized, non-fluorescent, blue form to its reduced, fluorescent, red form. Data can be collected using either fluorescence-based instrumentation (530-560 nm excitation wavelength and 590 nm emission wavelength) or absorbance-based instrumentation (570 nm and 600 nm). […]\nThe LD50, the dose at which half of the cells die, was calculated from Dox and Dox-P dose response curves for five different cell lines, as shown in Table 1."}, "B16-F10 Melanoma": {"system": "B16-F10 Melanoma", "assay": "In vitro LD50 from dose response curves (ALAMAR BLUE cell viability)", "assay_type": "cell-based", "details": "dose at which half of the cells die"}, "Lewis Lung Carcinoma": {"system": "Lewis Lung Carcinoma", "assay": "In vitro LD50 from dose response curves (ALAMAR BLUE cell viability)", "assay_type": "cell-based", "details": "dose at which half of the cells die"}, "Human Breast Carcinoma": {"system": "Human Breast Carcinoma", "assay": "In vitro LD50 from dose response curves (ALAMAR BLUE cell viability)", "assay_type": "cell-based", "details": "dose at which half of the cells die"}, "[2]": {"system": "Doxorubicin and multidrug-resistant CHO Cells", "assay": "Cell viability / in vitro LD50 on drug-resistant CHO cells (ALAMAR BLUE)", "assay_type": "cell-based", "details": "24 hours, 0.25, 0.5, 0.75 and 1.0 mM", "description": "as §1\nCell viability was measured using the ALAMAR BLUE™ assay (available from Biosource International, Camarillo, Calif.). The assay quantitatively measures the proliferation of cell lines and can establish the relative cytotoxicity of chemical agents. The assay incorporates a fluorometric/colorimetric growth indicator based on detection of metabolic activity. The system incorporates an oxidation-reduction (redox) indicator that both fluoresces and changes color in response to chemical reduction of growth medium resulting from cell growth. This causes the redox indicator to change from its oxidized, non-fluorescent, blue form to its reduced, fluorescent, red form. Data can be collected using either fluorescence-based instrumentation (530-560 nm excitation wavelength and 590 nm emission wavelength) or absorbance-based instrumentation (570 nm and 600 nm)."}, "B16-F10 melanoma cells": {"system": "B16-F10 melanoma cells", "assay": "Adhesion of B16-F10 melanoma cells to coated wells", "assay_type": "cell-based", "details": "wells covered with 40 μg/ml", "description": "An adhesion study was performed to evaluate the adhesion of B16-F10 melanoma cells (a nonresistant cell line) to doxorubicin and the doxorubicin-peptide conjugate of Example 1. In a 96 well plate, duplicate wells were covered with 40 μg/ml either TSP, Dox-P, the Cys(Acm)-Ser-Val-Thr-Cys(Acm)-Gly (SEQ ID NO: 6) peptide, Dox, the scrambled peptide Val-Cys-Thr-Gly-Ser-Cys (SEQ ID NO: 3), the Cys(Acm)Ser-Val-Thr-Cys-(Acm)-Gly (SEQ ID NO: 6) peptide with a d orientation, or 1% bovine serum albumin (BSA). The wells were dried out overnight and then blocked with BSA. 100 μl of a suspension containing 2×10^5 B16-F-10 melanoma cells were plated in the protein covered wells and incubated at 37° C. for 20 minutes to 1 hour. The non-adherent cells were removed and the wells were washed with a Hepes buffer. The adherent cells were fixed with 2.5% glutaraldehyde for 10 minutes and stained with 0.2% Giemsa. The stain was washed off and the cells were counted in a field of 1 mm square. Cells adhering to BSA were considered background."}, "[3]": {"details": "mice, 68 mg/kg (same number of doxorubicin molecules as Dox 30 mg/kg), 3 mice treated"}},
  "note": "“Also recorded” adds a separate entry of the source. Read-outs that look alike come from different tables or passages of the source. Residues, ends and D or L forms follow the SMILES beside them. No end group written: not given here. *: point of attachment. X1 = COc1cccc2c1C(=O)c1c(O)c3c(c(O)c1C2=O)CC(O)(C(=O)CO)C[C@@H]3O[C@H]1C[C@H](N*)[C@H](O)[C@H](C)O1; Acm = CC(=O)NC*",
  "data": [
    {"compound": "Cys(Acm)-Ser-Val-Thr-Cys(Acm)-Gly (C(Acm)SVTC(Acm)G) [thrombospondin-derived hexapeptide with cysteine sulfur protected by acetamidomethyl (Acm) groups]", "values": [
      {"measurement": "Melanoma tumor development (number of lung tumor colonies / lung metastasis)", "setting": "Melanoma tumor cells", "value": "lower number of tumors than buffer alone"},
      {"measurement": "Melanoma tumor development (number of lung tumor colonies / lung metastasis)", "setting": "Melanoma tumor cells; listed as peptide", "value": "inhibit the development of lung metastasis"},
      {"measurement": "Effect of peptide on doxorubicin toxicity of resistant CHO cells", "setting": "[1]", "value": "did not show any effect"}
    ]},
    {"compound": "ASVTAR", "values": [
      {"measurement": "Effect of peptide on doxorubicin toxicity of resistant CHO cells", "setting": "[1]", "value": "shows a dose-response effect"}
    ]},
    {"compound": "COc1cccc2c1C(=O)c1c(O)c3c(c(O)c1C2=O)C[C@@](O)(C(=O)CO)C[C@@H]3O[C@H]1C[C@H](N)[C@H](O)[C@H](C)O1", "note": "[Dox, doxorubicin, reference compound]", "values": [
      {"measurement": "In Vitro LD50", "setting": "Wild-type CHO Cells; Wild-type CHO Cells, dose at which half of the cells die", "value": 1.0, "unit": "mM"},
      {"measurement": "Melanoma tumor development (number of lung tumor colonies / lung metastasis)", "setting": "Melanoma tumor cells", "value": "inhibit the development of lung metastasis; also recorded: effective at preventing tumor development"},
      {"measurement": "In Vitro LD50", "setting": "B16-F10 Melanoma", "value": 0.30, "unit": "mM"},
      {"measurement": "In Vitro LD50", "setting": "Lewis Lung Carcinoma", "value": 0.20, "unit": "mM"},
      {"measurement": "In Vitro LD50", "setting": "Human Breast Carcinoma", "value": 1.0, "unit": "mM"},
      {"measurement": "Toxicity Results: survival", "setting": "mice, 30 mg/kg, 3 mice treated", "value": 3, "unit": "mice died^1"},
      {"measurement": "Toxicity Results: body weight change", "setting": "mouse, in vivo, 30 mg/kg", "value": "significant weight loss"},
      {"measurement": "Effect on drug-resistant CHO cell viability (dose response)", "setting": "[2]", "value": "negligible effect"}
    ]},
    {"compound": "COc1cccc2c1C(=O)c1c(O)c3c(c(O)c1C2=O)CC(O)(C(=O)CO)C[C@@H]3O[C@H]1C[C@H](NC(=O)CNC(=O)[C@H](CSCNC(C)=O)NC(=O)[C@@H](NC(=O)[C@@H](NC(=O)[C@H](CO)NC(=O)[C@H](CSCNC(C)=O)NC(C)=O)C(C)C)[C@@H](C)O)[C@H](O)[C@H](C)O1", "note": "(stereo partly drawn) [Dox-P] (Ac-C(Acm)SVTC(Acm)G-X1)", "values": [
      {"measurement": "Adhesion of B16-F10 melanoma cells", "setting": "B16-F10 melanoma cells", "value": "does not destroy its adhesive activity"},
      {"measurement": "Effect on wild-type CHO cell viability", "setting": "Wild-type CHO Cells; 24 hours, 0.25-1.0 mM, compared with Dox alone", "value": "appears to function more effectively against wild-type CHO cells than Dox alone"},
      {"measurement": "Melanoma tumor development (number of lung tumor colonies / lung metastasis)", "setting": "Melanoma tumor cells", "value": "inhibit the development of lung metastasis; also recorded: effective at preventing tumor development"},
      {"measurement": "Toxicity Results: body weight change", "setting": "[3]", "value": "some small weight gain"},
      {"measurement": "Toxicity Results: survival", "setting": "[3]", "value": 3, "unit": "mice lived"},
      {"measurement": "Effect on drug-resistant CHO cell viability (dose response)", "setting": "[2]", "value": "dramatic dose-response effect"}
    ]}
  ]
}
